In patent publication EP0381527A1, “Ouabain like compounds and pharmaceutical compositions containing them” (YISSUM RESEARCH DEVELOPMENT COMPANY OF THE HEBREW …, priority 1989, dated 1990):

Tests used:
Na,K-ATPase [1] = assay: Inhibition of [3H]-ouabain binding to rat brain synaptosomal fraction (filtration); conditions: Figure 10; result in words
Experimental: Assays for Digitalis-Like Activity: • The digitalis-like activity of each fraction obtained in the course of the purification was determined quantitatively using at least two of the following bioassays: • a. Inhibition of [^3H]-ouabain binding: • The binding of [^3H]-ouabain to rat brain synaptosomal fraction was carried out by a conventional filtration technique as previously described (Lichtstein D., et al., Life Sci. 38: 1261-1270 (1986)). In brief: The reaction mixture (500µl final volume) contained the following constituents (final concentrations): 50 mM Tris-HCI buffer (pH 7.4), 0.5 mM EDTA, 80 mM NaCI, 4 mM MgSO4, 2 mM ATP (Tris, vanadium-free) and 32 nM [^3H]-ouabain (19.5 Ci/mmol). […] The filters were washed two times with 3 ml volumes of the same Tris buffer, dried and assayed for radioactivity in a Packard liquid scintillation counter at a counting efficiency of approximately 50%. Specific binding was calculated by subtracting the binding observed in the presence of 100 µM unlabeled ouabain from that observed in the absence of unlabeled ouabain. […] Inhibition of Na, K-ATPase activity: • Na,K-ATPase activity in rat brain microsomal fraction was determined as previously described (Lichtstein D., et al., Life Sci. 38: 1261-1270 (1986)). […]

Na,K-ATPase [2] = assay: Inhibition of Na,K-ATPase activity in rat brain microsomal fraction (colorimetric inorganic phosphate); assay type: biochemical
Experimental: Assays for Digitalis-Like Activity: • The digitalis-like activity of each fraction obtained in the course of the purification was determined quantitatively using at least two of the following bioassays: • a. Inhibition of [^3H]-ouabain binding: • The binding of [^3H]-ouabain to rat brain synaptosomal fraction was carried out by a conventional filtration technique as previously described (Lichtstein D., et al., Life Sci. 38: 1261-1270 (1986)). In brief: The reaction mixture (500µl final volume) contained the following constituents (final concentrations): 50 mM Tris-HCI buffer (pH 7.4), 0.5 mM EDTA, 80 mM NaCI, 4 mM MgSO4, 2 mM ATP (Tris, vanadium-free) and 32 nM [^3H]-ouabain (19.5 Ci/mmol). Reactions were initiated by the addition of 200 µl of crude synaptosomal fraction resulting in a final protein concentration of 200 µg per reaction. Following incubation for 1 hr. at 37° C, the reactions were terminated by the addition of 3 ml cold (4°C) 50 mM Tris-HCI (pH 7.4) and filtered over Whatman GF/B filters. The filters were washed two times with 3 ml volumes of the same Tris buffer, dried and assayed for radioactivity in a Packard liquid scintillation counter at a counting efficiency of approximately 50%. Specific binding was calculated by subtracting the binding observed in the presence of 100 µM unlabeled ouabain from that observed in the absence of unlabeled ouabain. Specific binding represented 93% of the total binding under control conditions. • b. Inhibition of Na, K-ATPase activity: • Na,K-ATPase activity in rat brain microsomal fraction was determined as previously described (Lichtstein D., et al., Life Sci. 38: 1261-1270 (1986)). Enzyme activity was measured by the colorimetric determination of inorganic phosphate after the incubation of microsomes (200 µg protein per reaction) at 37 C in a solution (final volume 500 µl) containing (final concentrations) 34 mM Tris-HCI (pH 7.4), 100 mM NaCl, 20 mM KCI, 4 Mm MgC12 and 4 mM ATP (Tris, vanadium free). After preincubation for 10 min., the ATP was added to initiate the reaction. Reactions were terminated by the addition of 100 µl of 5% trichloroacetic acid and.the precipitate was removed by centrifugation. Na,K-independent ATPase activity was determined by omitting Na^+ and K^+ from the reaction mixture or by the addition of 1 mM ouabain to the complete assay mixture. • c. Inhibition of ^86Rb uptake to N1E115 cells: • Neuroblastoma N1E115 cells were grown in MEM (Modified Eagle's Medium) medium. Cells were removed from their growth flask by raising and lowering the medium with a pipette and centrifuged at 100 x g in a Sorval RC-5 centrifuge for 10 minutes. The pellet was resuspended in MEM. 86Rb-uptake was initiated by the addition of N1E115 cells to MEM which contained ^86Rb tracer (1 µCi). Uptake was terminated after 1 min. by the addition of 1.5 ml ice cold 125 mM MgC12 solution followed by 1 min. centrifugation in an Eppendorf centrifuge. The Eppendorf tube was cut and the pellet removed and transferred to a scintilation vial, to which 6 ml of Emulsifier Scintillator 299TM (Packard) were added and radioactivity was determined.

With `CCCC=CC(O)CC(O)CCCCCCCCCC(=O)O` (single isomer, unassigned) [DLC-II, 11,13-dihydroxy-14-octadecaenoic acid] the “inhibition of [^3H]-ouabain binding” value (Na,K-ATPase [1]) was “inhibit [^3H]-ouabain binding in a dose dependent mode”, the “Na+, K+-ATPase activity (% of control)” value (Na,K-ATPase [2]; amount 1 (arbitrary units)) was 90 % of control and the “Na+, K+-ATPase activity (% of control)” value (Na,K-ATPase [2]; amount 2 (arbitrary units)) was 67 % of control. For the same compound, the “Na+, K+-ATPase activity (% of control)” value (Na,K-ATPase [2]; amount 3 (arbitrary units)) was 71 % of control, the “Na+, K+-ATPase activity (% of control)” value (Na,K-ATPase [2]; amount 5 (arbitrary units)) was 51 % of control and the “Na+, K+-ATPase activity (% of control)” value (Na,K-ATPase [2]; amount 8 (arbitrary units)) was 10 % of control.
